In ChEMBL document CHEMBL5050856, “Atf6 modulators and uses thereof” (2021):

Columns and labels:
Assay type in all cases: cell-based
U2OS [1] = assay: Modulation of ATF6 activity in human U2OS cells at 1 uM measured by TRE-luciferase reporter assay relative to control
U2OS [2] = assay: Modulation of ATF6 activity in human U2OS cells at 10 uM measured by TRE-luciferase reporter assay relative to control
U2OS [3] = assay: Modulation of ATF6 activity in human U2OS cells at 10 uM in presence of ER stress inducer thapsigargin (Tg) measured by TRE-luciferase reporter assay relative to control
U2OS [4] = assay: Modulation of ATF6 activity in human U2OS cells at 1 uM in presence of ER stress inducer thapsigargin (Tg) measured by TRE-luciferase reporter assay relative to control

Q: `CC(C1CCOC1)n1cc(NC(=O)c2cc(-c3ccco3)on2)cn1` (stereo in doubt; 3-24) was tested. Which Activity (U2OS [1]) did it give?
A: 0%

Q: What about the Activity (U2OS [2]) of the same molecule?
A: 25%

Q: What about the Activity (U2OS [3]; filed as activator) of the same molecule?
A: > 150%

Q: And the Activity (U2OS [4]; filed as activator)?
A: 100%

Q: For `Cc1nn(C(C)c2ccc(C(F)(F)F)cc2C(F)(F)F)cc1C#Cc1nnc(-c2ccccn2)s1` (stereo in doubt; 2-24), which Activity (U2OS [3]) is on record?
A: < 50%

Q: What about the Activity (U2OS [4]) of the same molecule?
A: < 50%

Q: How did the Activity (U2OS [1]) turn out when `O=C(Nc1cnn(Cc2c(Cl)cncc2Cl)c1)c1cc(-c2ccco2)on1` was run?
A: 0%

Q: And the Activity (U2OS [2])?
A: 0%

Q: And the Activity (U2OS [3]; filed as activator)?
A: 125%

Q: And the Activity (U2OS [4]; filed as activator)?
A: 100%

Q: Which Activity (U2OS [3]) does the source give for `CC(c1ccc(C(F)(F)F)cc1C(F)(F)F)n1cc(/C=C\c2nnc(-c3ccccn3)s2)cn1` (stereo in doubt; 2-6) here?
A: 50%

Q: And the Activity (U2OS [4]; filed as activator)?
A: 100%

Q: Which results are given for `CC(C1CCCC1)n1cc(NC(=O)c2cc(-c3ccco3)on2)cn1` (stereo in doubt; 3-5)?
A: Activity (U2OS [1]): 0%; Activity (U2OS [2]): 0%; Activity (U2OS [3]; filed as activator): > 150%; Activity (U2OS [4]; filed as activator): 125%

Q: Which results are given for `CC(c1ccc(C(F)(F)F)cc1C(F)(F)F)n1cc(C#Cc2nnc(-c3cnccn3)s2)cn1` (stereo in doubt; 2-10)?
A: Activity (U2OS [3]): 75%; Activity (U2OS [4]): 50%

Q: `CC(c1ccc(C(F)(F)F)cc1C(F)(F)F)n1cc(C#Cc2nnc(-c3ccccn3)s2)cn1` (stereo in doubt; 2-2) was tested. Which Activity (U2OS [3]) did it give?
A: < 50%

Q: What about the Activity (U2OS [4]) of the same molecule?
A: < 50%

Q: How did the Activity (U2OS [1]) turn out when `CC(C1CCOC1)n1cc(NC(=O)c2cc(-c3ccco3)on2)cn1` (stereo in doubt; 3-27) was run?
A: 0%

Q: What about the Activity (U2OS [2]) of the same molecule?
A: 25%

Q: What about the Activity (U2OS [3]; filed as activator) of the same molecule?
A: > 150%

Q: What about the Activity (U2OS [4]; filed as activator) of the same molecule?
A: 100%

Q: Which results are given for `O=C(Nc1cnn(C2CNC2)c1)c1cc(-c2ccco2)on1`?
A: Activity (U2OS [1]): 0%; Activity (U2OS [4]; filed as activator): 125%

Q: For `CC(c1ccc(C(F)(F)F)cc1C(F)(F)F)n1cc(C#Cc2nnc(-c3cnccn3)s2)cn1` (stereo in doubt; 2-22), which Activity (U2OS [3]) is on record?
A: 75%

Q: What about the Activity (U2OS [4]) of the same molecule?
A: 50%

Q: How did the Activity (U2OS [1]) turn out when `O=C(Nc1cnn(C2CCOC2)c1)c1cc(-c2ccccn2)on1` (stereo in doubt; 3-21) was run?
A: 0%

Q: What about the Activity (U2OS [2]) of the same molecule?
A: 25%

Q: And the Activity (U2OS [3]; filed as activator)?
A: > 150%

Q: What about the Activity (U2OS [4]; filed as activator) of the same molecule?
A: > 150%

Q: With `FC(F)(F)c1ccc(Cn2cc(C#Cc3nnc(-c4ccccn4)s3)cn2)c(C(F)(F)F)c1` as the molecule, how does the Activity (U2OS [3]) read?
A: 75%

Q: And the Activity (U2OS [4])?
A: 50%

Q: How did the Activity (U2OS [1]) turn out when `O=C(Nc1cnn(Cc2ccccc2)c1)c1cc(-c2ccco2)on1` was run?
A: 0%

Q: And the Activity (U2OS [2])?
A: 25%

Q: And the Activity (U2OS [3]; filed as activator)?
A: 125%

Q: And the Activity (U2OS [4]; filed as activator)?
A: 100%

Q: For `CC(C1CCOC1)n1cc(NC(=O)c2cc(-c3ccco3)on2)cn1` (stereo in doubt; 3-25), which Activity (U2OS [1]) is on record?
A: 0%

Q: And the Activity (U2OS [2])?
A: 0%

Q: And the Activity (U2OS [3]; filed as activator)?
A: > 150%

Q: And the Activity (U2OS [4]; filed as activator)?
A: 100%

Q: What does the source list for `O=C(Nc1cnn(C2CCOC2)c1)c1cc(-c2cccs2)on1` (stereo in doubt; 3-19)?
A: Activity (U2OS [1]): 0%; Activity (U2OS [2]): 25%; Activity (U2OS [3]; filed as activator): > 150%; Activity (U2OS [4]; filed as activator): > 150%

Q: Which Activity (U2OS [3]) does the source give for `Cc1nn(C(C)c2ccc(C(F)(F)F)cc2C(F)(F)F)cc1C#Cc1nnc(-c2ccccn2)s1` (stereo in doubt; 2-11) here?
A: 50%

Q: What about the Activity (U2OS [4]) of the same molecule?
A: 50%

Q: For `Cc1nn(C(C)c2ccc(C(F)(F)F)cc2C(F)(F)F)cc1C#Cc1nnc(-c2ccccn2)s1` (stereo in doubt; 2-23), which Activity (U2OS [3]) is on record?
A: 50%

Q: What about the Activity (U2OS [4]) of the same molecule?
A: 75%

Q: What does the source list for `CC(c1c(Cl)cccc1Cl)n1cc(C#Cc2nnc(-c3ccccn3)s2)cn1` (configuration not stated)?
A: Activity (U2OS [1]): 0%; Activity (U2OS [2]): 0%; Activity (U2OS [3]; filed as activator): 100%; Activity (U2OS [4]): 75%

Q: Which results are given for `O=C(Nc1cnn(C2CCNC2)c1)c1cc(-c2ccco2)on1` (configuration not stated)?
A: Activity (U2OS [1]): 0%; Activity (U2OS [2]): 0%; Activity (U2OS [3]; filed as activator): > 150%; Activity (U2OS [4]; filed as activator): 125%

Q: `CC(c1ccc(C(F)(F)F)cc1C(F)(F)F)n1cc(C#Cc2nnc(-c3ccccn3)s2)cn1` (stereo in doubt; 2-1) was tested. Which Activity (U2OS [3]) did it give?
A: < 50%

Q: And the Activity (U2OS [4])?
A: 50%

Q: Which results are given for `CC(C1CCCC1)n1cc(NC(=O)c2cc(-c3ccco3)on2)cn1` (stereo in doubt; 3-18)?
A: Activity (U2OS [1]): 0%; Activity (U2OS [2]): 0%; Activity (U2OS [3]; filed as activator): 125%; Activity (U2OS [4]; filed as activator): 100%

Q: `CC(c1ccc(C(F)(F)F)cc1C(F)(F)F)n1cc(C#Cc2nnc(-c3cnccn3)s2)cn1` (stereo in doubt; 2-21) was tested. Which Activity (U2OS [3]) did it give?
A: 75%

Q: What about the Activity (U2OS [4]) of the same molecule?
A: 75%

Q: `O=C(Nc1cnn(CC2CCCC2)c1)c1cc(-c2ccco2)on1` was tested. Which Activity (U2OS [1]) did it give?
A: 0%

Q: What about the Activity (U2OS [2]) of the same molecule?
A: 0%

Q: What about the Activity (U2OS [3]; filed as activator) of the same molecule?
A: > 150%

Q: And the Activity (U2OS [4]; filed as activator)?
A: > 150%

Q: How did the Activity (U2OS [3]) turn out when `CC(c1ccc(C(F)(F)F)cc1C(F)(F)F)n1cc(/C=C\c2nnc(-c3ccccn3)s2)cn1` (stereo in doubt; 2-7) was run?
A: 75%

Q: And the Activity (U2OS [4]; filed as activator)?
A: 100%

Q: With `CC(C1CCOC1)n1cc(NC(=O)c2cc(-c3ccco3)on2)cn1` (stereo in doubt; 3-26) as the molecule, how does the Activity (U2OS [1]) read?
A: 0%

Q: And the Activity (U2OS [2])?
A: > 50%

Q: And the Activity (U2OS [3]; filed as activator)?
A: > 150%

Q: And the Activity (U2OS [4]; filed as activator)?
A: > 150%

Q: With `CC(c1ccc(C(F)(F)F)cc1C(F)(F)F)n1cc(/C=C\c2nnc(-c3ccccn3)s2)cn1` (stereo in doubt; 2-8) as the molecule, how does the Activity (U2OS [3]) read?
A: 50%

Q: And the Activity (U2OS [4]; filed as activator)?
A: 100%

Q: For `O=C(Nc1cnn(Cc2ccc(C(F)(F)F)cc2)c1)c1cc(-c2ccco2)on1`, which Activity (U2OS [1]) is on record?
A: 0%

Q: What about the Activity (U2OS [3]) of the same molecule?
A: 75%

Q: What about the Activity (U2OS [4]; filed as activator) of the same molecule?
A: 100%

Q: For `CC(c1ccc(C(F)(F)F)cc1C(F)(F)F)n1cc(CCc2nnc(-c3ccccn3)s2)cn1` (configuration not stated), which Activity (U2OS [3]) is on record?
A: < 50%

Q: And the Activity (U2OS [4])?
A: 75%

Q: What does the source list for `CC(c1ccc(C(F)(F)F)cc1C(F)(F)F)n1cc(/C=C/c2nnc(-c3ccccn3)s2)cn1` (configuration not stated)?
A: Activity (U2OS [3]): < 50%; Activity (U2OS [4]; filed as activator): 100%

Q: Which Activity (U2OS [1]) does the source give for `CC(C1CCCC1)n1cc(NC(=O)c2cc(-c3ccco3)on2)cn1` (stereo in doubt; 3-17) here?
A: 0%

Q: And the Activity (U2OS [2])?
A: 0%

Q: What about the Activity (U2OS [3]; filed as activator) of the same molecule?
A: 125%

Q: And the Activity (U2OS [4]; filed as activator)?
A: 125%

Q: Which Activity (U2OS [1]) does the source give for `O=C(Nc1cnn(C2CCOC2)c1)c1cc(-c2cccs2)on1` (stereo in doubt; 3-22) here?
A: 0%

Q: What about the Activity (U2OS [2]) of the same molecule?
A: 25%

Q: And the Activity (U2OS [3]; filed as activator)?
A: > 150%

Q: And the Activity (U2OS [4]; filed as activator)?
A: 125%

Q: For `O=C(Nc1cnn(Cc2ccc(C(F)(F)F)cc2C(F)(F)F)c1)c1cc(-c2ccco2)on1`, which Activity (U2OS [3]) is on record?
A: < 50%

Q: And the Activity (U2OS [4])?
A: < 50%

Q: How did the Activity (U2OS [1]) turn out when `O=C(Nc1cnn(C2CCOC2)c1)c1cc(-c2ccccn2)on1` (stereo in doubt; 3-20) was run?
A: 0%

Q: What about the Activity (U2OS [2]) of the same molecule?
A: 0%

Q: And the Activity (U2OS [3]; filed as activator)?
A: > 150%

Q: What about the Activity (U2OS [4]; filed as activator) of the same molecule?
A: 100%

Q: For `O=C(Nc1cnn(C2CCOC2)c1)c1cc(-c2cccs2)on1` (stereo in doubt; 3-23), which Activity (U2OS [1]) is on record?
A: 25%

Q: What about the Activity (U2OS [2]) of the same molecule?
A: > 50%

Q: And the Activity (U2OS [3]; filed as activator)?
A: > 150%

Q: What about the Activity (U2OS [4]; filed as activator) of the same molecule?
A: > 150%

Q: What does the source list for `O=C(Nc1cnn(C2CCCC2)c1)c1cc(-c2ccco2)on1`?
A: Activity (U2OS [1]): 0%; Activity (U2OS [2]): 0%; Activity (U2OS [3]; filed as activator): > 150%; Activity (U2OS [4]; filed as activator): > 150%
